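Briefly, cells in 96-well plates were exposed to five compound concentrations for 48 h, and endpoints were estimated by linear interpolation. The concentration for 50% growth inhibition is given as GI50. TGI is the concentration that stops growth completely.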
Columns and labels:
Test in all cases: NCI tumour cell line growth inhibition, 48 h
[1] = test system: BT-549 breast
[2] = test system: COLO 205 colon
[3] = test system: A498 renal
[4] = test system: A549 NSCLC
[5] = test system: TK-10 renal
[6] = test system: MDA-MB-435
[7] = test system: LOX IMVI melanoma
[8] = test system: SNB-19 CNS
[9] = test system: HL-60(TB) leukemia
[10] = test system: IGROV1 ovarian

COC1(C(=O)N[C@@H](C)c2ccc(-n3cc(F)cn3)nc2)CCC(c2nc(C)cc(Nc3cc(C)[nH]n3)n2)CC1 (stereo partly drawn)
GI50 [1]: 0.627 µM
TGI [1]: 6.01 µM
GI50 [2]: 3.83 µM
TGI [2]: 23.7 µM
GI50 [3]: 0.147 µM
TGI [3]: 0.7 µM
GI50 [4]: 1.78 µM
TGI [4]: 16.3 µM
GI50 [5]: 1.96 µM
TGI [5]: 8.97 µM
GI50 [6]: 8.27 µM
TGI [6]: 21.1 µM
GI50 [7]: 0.714 µM
TGI [7]: 2.54 µM
GI50 [8]: 2.29 µM
TGI [8]: 51.4 µM
GI50 [9]: 19.5 µM
TGI [9]: 41.8 µM

COc1ccc2nc3cc([N+](=O)[O-])ccc3c(NCCCCCN(C)C)c2c1
GI50 [1]: 1.77 µM
TGI [1]: 3.55 µM
GI50 [2]: 0.241 µM
TGI [2]: 1.68 µM
GI50 [3]: 1.07 µM
TGI [3]: 2.98 µM
GI50 [4]: 0.25 µM
TGI [4]: 1.15 µM
GI50 [6]: 0.271 µM
TGI [6]: 0.972 µM
GI50 [7]: 0.279 µM
TGI [7]: 1.1 µM
GI50 [10]: 0.37 µM
TGI [10]: 2.53 µM
GI50 [8]: 0.301 µM
TGI [8]: 1.23 µM
GI50 [9]: 0.14 µM
TGI [9]: 2.52 µM

Nc1cc2cccc[n+]2c2cc(Cl)ccc12
GI50 [1]: 7.24 µM
TGI [1]: 25.2 µM
GI50 [2]: 11.8 µM
GI50 [4]: 56.3 µM
GI50 [5]: 59.7 µM
GI50 [6]: 15.7 µM
TGI [6]: 48.7 µM
GI50 [10]: 71.6 µM
GI50 [8]: 9.23 µM
TGI [8]: 55.5 µM
GI50 [9]: 16.3 µM

COc1ccc2c(c1)C(O)(C(F)(F)F)c1cc(C(=O)C(F)(F)F)c3ccccc3c1N2 (stereo not drawn)
TGI [2]: 19.5 µM
TGI [3]: 27.4 µM
TGI [4]: 28.3 µM
TGI [5]: 27.4 µM
TGI [7]: 16.5 µM
TGI [10]: 27.9 µM
TGI [8]: 29.5 µM
TGI [9]: 43.2 µM

C=CCc1c2c(c(OC)c3ccoc13)C(=O)/C(=C/c1ccccc1OC)O2
GI50 [1]: 4.44 µM
TGI [1]: > 100 µM
GI50 [2]: 7.64 µM
TGI [2]: 69.5 µM
GI50 [3]: 5.81 µM
TGI [3]: 79.2 µM
GI50 [4]: 4.12 µM
TGI [4]: > 100 µM
GI50 [5]: 6.5 µM
TGI [5]: > 100 µM
GI50 [6]: 3.12 µM
TGI [6]: > 100 µM
GI50 [7]: 3.13 µM
TGI [7]: 27.1 µM
GI50 [10]: 5.27 µM
TGI [10]: > 100 µM
GI50 [8]: 5.83 µM
TGI [8]: > 100 µM

CC1(C)SC2C(NC(=O)C(N)c3ccccc3)C(=O)N2C1C(=O)O (stereo not drawn)
TGI [1]: > 100 µM
TGI [2]: > 100 µM
TGI [4]: > 100 µM
TGI [5]: > 100 µM
TGI [6]: > 100 µM
TGI [7]: > 100 µM
TGI [10]: > 100 µM
TGI [8]: > 100 µM
TGI [9]: > 100 µM

Cc1sc(C(=O)Nc2cc(C(=O)NCCCN(C)C)n(C)c2)cc1NC(=O)CCCN1C(=O)c2cccc3cccc(c23)C1=O
GI50 [2]: > 100 µM
TGI [2]: > 100 µM
GI50 [3]: > 100 µM
TGI [3]: > 100 µM
GI50 [4]: > 100 µM
TGI [4]: > 100 µM
GI50 [5]: > 100 µM
TGI [5]: > 100 µM
GI50 [6]: > 100 µM
TGI [6]: > 100 µM
GI50 [7]: > 100 µM
TGI [7]: > 100 µM
GI50 [10]: > 100 µM
TGI [10]: > 100 µM
GI50 [8]: > 100 µM
TGI [8]: > 100 µM
GI50 [9]: > 100 µM
TGI [9]: > 100 µM

COc1ccc(C(=O)/C=C/c2ccc(/C=C/c3cc(OC)c(OC)c(OC)c3)cc2)cc1
GI50 [1]: 3.36 µM
TGI [1]: 16.8 µM
GI50 [2]: 13.7 µM
TGI [2]: > 100 µM
GI50 [3]: 18.6 µM
TGI [3]: > 100 µM
GI50 [4]: 4.67 µM
TGI [4]: 80.9 µM
GI50 [6]: 4.28 µM
TGI [6]: 47.7 µM
GI50 [7]: 3.76 µM
TGI [7]: 60.9 µM
GI50 [10]: 9.24 µM
TGI [10]: 76.4 µM
GI50 [8]: 21.1 µM
TGI [8]: > 100 µM
GI50 [9]: 4.49 µM
TGI [9]: > 100 µM

O=C1c2ccccc2-c2c1c1ccccc1c(=O)n2CCCNCCCNCCCn1c2c(c3ccccc3c1=O)C(=O)c1ccccc1-2
GI50 [1]: 0.665 µM
TGI [1]: 2.08 µM
GI50 [2]: 0.572 µM
TGI [2]: 8.1 µM
GI50 [3]: 1.25 µM
TGI [3]: 2.61 µM
GI50 [4]: 0.0174 µM
TGI [4]: 0.183 µM
TGI [5]: 0.732 µM
GI50 [6]: 0.338 µM
TGI [6]: 2.26 µM
GI50 [7]: 0.0215 µM
TGI [7]: 0.175 µM
GI50 [10]: < 0.01 µM
TGI [10]: < 0.0416 µM
GI50 [8]: 0.681 µM
TGI [8]: 4.1 µM

C1CCSCCCCSCCCCSCCCCSC1
TGI [1]: > 100 µM
TGI [2]: > 100 µM
TGI [3]: > 100 µM
TGI [4]: > 100 µM
TGI [5]: > 100 µM
TGI [6]: > 100 µM
TGI [7]: > 100 µM
TGI [10]: > 100 µM
TGI [8]: > 100 µM

CCOC(=O)C1=C(C)N(Cc2ccccc2)C(C)=C(C(=O)OCC)C1c1ccccc1O
TGI [2]: 31.4 µM
TGI [3]: 91.4 µM
TGI [4]: > 100 µM
TGI [5]: > 100 µM
TGI [7]: 39.7 µM
TGI [10]: > 100 µM
TGI [8]: > 100 µM
TGI [9]: 58.6 µM

CC(C)(C)OC(=O)C#CC[C@H]1CCCC1/C=C/C(O)=C1/C(=O)NC(CCCNC(=O)OC(C)(C)C)C1=O (stereo partly drawn)
TGI [2]: 33.6 µM
TGI [3]: > 100 µM
TGI [4]: > 100 µM
TGI [5]: 84.5 µM
TGI [7]: 40.2 µM
TGI [10]: > 100 µM
TGI [8]: 88.5 µM
TGI [9]: 73.7 µM

CC(C)C(=O)Nc1nc2nc[nH]c2c(=O)[nH]1
TGI [2]: > 100 µM
TGI [3]: > 100 µM
TGI [4]: > 100 µM
TGI [5]: > 100 µM
TGI [7]: > 100 µM
TGI [10]: > 100 µM
TGI [8]: > 100 µM
TGI [9]: > 100 µM

COC(=O)CCC1CCc2c(OC)ccc(O)c2C1=O (stereo not drawn)
TGI [2]: > 100 µM
TGI [3]: > 100 µM
TGI [4]: > 100 µM
TGI [5]: > 100 µM
TGI [7]: > 100 µM
TGI [10]: > 100 µM
TGI [8]: > 100 µM
TGI [9]: > 100 µM

CN(CCCN)CCCNc1nc2ccccc2c2[nH]c3ccccc3c12
GI50 [1]: 0.924 µM
TGI [1]: 2.15 µM
GI50 [2]: 0.178 µM
TGI [2]: 0.509 µM
GI50 [3]: 1.61 µM
TGI [3]: 3.08 µM
GI50 [4]: 0.16 µM
TGI [4]: 2.22 µM
GI50 [5]: 0.54 µM
TGI [5]: 3.16 µM
GI50 [6]: 0.281 µM
TGI [6]: 0.816 µM
GI50 [10]: 0.329 µM
TGI [10]: 1.21 µM
GI50 [8]: 0.229 µM
TGI [8]: 0.943 µM
GI50 [9]: 0.138 µM
TGI [9]: 0.59 µM

COC(=O)/C=C/C=C(c1ccccc1)c1ccccc1
GI50 [1]: 3.4 µM
TGI [1]: 19.6 µM
GI50 [2]: 3.57 µM
TGI [2]: 13.9 µM
GI50 [3]: 10.6 µM
TGI [3]: 39.6 µM
GI50 [4]: 5.02 µM
TGI [4]: > 100 µM
GI50 [5]: 20.3 µM
TGI [5]: > 100 µM
GI50 [6]: 1.63 µM
TGI [6]: 4.37 µM
GI50 [7]: 5.87 µM
TGI [7]: 21.7 µM
GI50 [8]: 9.31 µM
TGI [8]: > 100 µM
GI50 [9]: 3.26 µM
TGI [9]: 26.1 µM

COc1ccccc1NC(=O)C1=C(C)NC(C)=C(C(=O)Nc2ccccc2OC)C1c1ccccc1F
TGI [2]: > 100 µM
TGI [3]: > 100 µM
TGI [4]: > 100 µM
TGI [5]: > 100 µM
TGI [7]: > 100 µM
TGI [10]: > 100 µM
TGI [8]: > 100 µM
TGI [9]: > 100 µM

CN(C(=O)C12C3C4C5C3C1(C(=O)O)C5C42)C(C)(C)C (stereo not drawn)
TGI [2]: 72.3 µM
TGI [3]: > 100 µM
TGI [4]: > 100 µM
TGI [5]: > 100 µM
TGI [7]: 65.1 µM
TGI [10]: > 100 µM
TGI [8]: > 100 µM
TGI [9]: 32 µM
